Experimental data: patent publication US3939157A, “3-Benzyl-7-substituted acetamido-3-cephem-4-carboxylic acids and halogenated benzyl derivatives” (Beecham Group Limited, priority 1972, dated 1976)
Values after ≈ are worked out from the molar mass of the structure shown.

Legend:
Assay type in all cases: cell-based
Strep.pneumoniae CN33 = assay: minimum inhibitory concentration (MIC) in agar, Strep.pneumoniae CN33; conditions: Streptococcus pneumoniae
Method: (§1) The minimum concentrations of this compound required to inhibit growth of five typical Gram-positive bacteria are tabulated below.
(§2) The minimum inhibitory concentrations (MIC) of the free acid (XIV) required to inhibit the growth of five typical Gram-positive bacteria are tabulated below:
(§3) t-Butyl 3-ethyl-7-(2-thienylacetamido)-3-cephem-4-carboxylate (23 mg) was treated with trifluoracetic acid at room temperature for 1 hour. The excess trifluoroacetic acid was distilled off azeotropically with dry benzene to give the free acid (XVII) as a gum (17 mg) .nu.max (CHCl3) 1770, 1705, 1680 cm^^-1 The minimum inhibitory concentrations of this compound required to inhibit the growth of five typical Gram-positive bacteria are tabulated below:
(§4) The cephem ester (XX) (28 mg) was dissolved in trifluoroacetic acid (0.8 ml) and allowed to stand at room temperature for 30 min.

B.subtilis = assay: minimum inhibitory concentration (MIC) in agar, B.subtilis; conditions: Bacillus subtilis
Method: as §1, §2, §3, §4

Staph.aureus Oxford = assay: minimum inhibitory concentration (MIC) in agar, Staph.aureus Oxford; conditions: Staphylococcus aureus
Method: as §1, §2, §3, §4

β-haemolytic Strep.CN10 = assay: minimum inhibitory concentration (MIC) in agar, β-haemolytic Strep.CN10
Method: as §1, §2, §3, §4

Staph.aureus Russell = assay: minimum inhibitory concentration (MIC) in agar, Staph.aureus Russell; conditions: Staphylococcus aureus
Method: as §1, §2, §3, §4

MIC (Strep.pneumoniae CN33) [µg/mL] | MIC (B.subtilis) [µg/mL] | MIC (Staph.aureus Oxford) [µg/mL] | MIC (Staph.aureus Russell) [µg/mL] | SMILES | MIC (β-haemolytic Strep.CN10) [µg/mL]
1 (≈ 2.36 µM) | 0.25 (≈ 0.59 µM) | 0.1 (≈ 0.236 µM) | 2.5 (≈ 5.9 µM) | N[C@@H](C(=O)NC1C(=O)N2C(C(=O)O)=C(Cc3ccccc3)CS[C@H]12)c1ccccc1 (stereo partly drawn) [VII; R = H, 3-Benzyl-7-[D-α-aminophenylacetamido]-3-cephem-4-carboxylic acid] | 0.1 (≈ 0.236 µM)
0.15 (≈ 0.35 µM) | 0.05 (≈ 0.117 µM) | 0.05 (≈ 0.117 µM) | 1.5 (≈ 3.5 µM) | O=C(Cc1cccs1)NC1C(=O)N2C(C(=O)O)=C(CCc3ccccc3)CS[C@H]12 (stereo partly drawn) [XXVI, 3-β-phenylethyl-7-(2-thienylacetamido) -3-cephem-4-carboxylic acid] | 0.02 (≈ 0.0467 µM)
0.2 (≈ 0.482 µM) | 0.2 (≈ 0.482 µM) | 0.05 (≈ 0.121 µM) | 10 (≈ 24.1 µM) | O=C(Cc1cccs1)NC1C(=O)N2C(C(=O)O)=C(Cc3ccccc3)CSC12 (stereo not shown) [VI] | 0.2 (≈ 0.482 µM)
0.25 (≈ 0.578 µM) | 0.5 (≈ 1.16 µM) | 0.25 (≈ 0.578 µM) | 10 (≈ 23.1 µM) | O=C(Cc1cccs1)NC1C(=O)N2C(C(=O)O)=C(Cc3ccc(F)cc3)CS[C@H]12 (stereo partly shown) [XII, 3-p-fluorobenzyl-7-(2-thienylacetamido)-3-cephem-4-carboxylic acid] | 0.25 (≈ 0.578 µM)
2.5 (≈ 7.09 µM) | 2.5 (≈ 7.09 µM) | 2.5 (≈ 7.09 µM) | 2.5 (≈ 7.09 µM) | CCC1=C(C(=O)O)N2C(=O)C(NC(=O)Cc3cccs3)[C@H]2SC1 (stereo partly shown) [XVII, 3-ethyl-7-(2-thienylacetamido)-3-cephem-4-carboxylic acid] | 2.5 (≈ 7.09 µM)
25 (≈ 56.8 µM) | 100 (≈ 227 µM) | 5 (≈ 11.4 µM) | 50 (≈ 114 µM) | O=C(O)CSCC(=O)NC1C(=O)N2C(C(=O)O)=C(Cc3ccc(F)cc3)CSC12 (stereo not shown) [XIV, 3-p-fluorobenzyl-7-carboxymethylthioacetamido-3-cephem-4-carboxylate] | 25 (≈ 56.8 µM)
0.98 (≈ 2.23 µM) | 1.95 (≈ 4.45 µM) | 0.98 (≈ 2.23 µM) | 15.6 (≈ 35.6 µM) | COC(=O)C1=C(Cc2ccccc2)CS[C@@H]2C(NC(=O)COc3ccccc3)C(=O)N12 (stereo partly shown) [II, Methyl 3-benzyl-7-phenoxyacetamido-3-cephem-4-carboxylate] | 1.95 (≈ 4.45 µM)
0.25 (≈ 0.592 µM) | 0.5 (≈ 1.18 µM) | 0.25 (≈ 0.592 µM) | 10 (≈ 23.7 µM) | O=C(Cc1cccs1)NC1C(=O)N2C(C(=O)O)=C(CC3CCCCO3)CS[C@H]12 (stereo partly shown) [XXII, 3-(2-tetrahydropyranylmethyl)-7-(2-thienylacetamido)-3-cephem-4-carboxylicacid] | 0.25 (≈ 0.592 µM)
